In PubChem BioAssay (NCI):
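Interpolation was linear, between the two tested concentrations surrounding the appropriate level; five concentrations were tested over 48 hours in 96-well plates. TGI: concentration producing complete growth inhibition.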

Columns and labels:
Assay in all cases: inhibition of tumour cell growth, NCI panel, 48 h
786-0 renal = test system: 786-0 renal
A498 renal = test system: A498 renal
A549 NSCLC = test system: A549 NSCLC
ACHN renal = test system: ACHN renal
BT-549 breast = test system: BT-549 breast
CAKI-1 renal = test system: CAKI-1 renal
COLO 205 colon = test system: COLO 205 colon
DMS 273 small cell lung = test system: DMS 273 small cell lung
DU-145 prostate = test system: DU-145 prostate
EKVX NSCLC = test system: EKVX NSCLC
HCC-2998 colon = test system: HCC-2998 colon
HCT-116 colon = test system: HCT-116 colon
HCT-15 colon = test system: HCT-15 colon
HL-60(TB) leukemia = test system: HL-60(TB) leukemia
HOP-18 NSCLC = test system: HOP-18 NSCLC
HOP-62 NSCLC = test system: HOP-62 NSCLC
HOP-92 NSCLC = test system: HOP-92 NSCLC
HS 578T breast = test system: HS 578T breast
HT29 colon = test system: HT29 colon
IGROV1 ovarian = test system: IGROV1 ovarian
KM12 colon = test system: KM12 colon
KM20L2 colon = test system: KM20L2 colon
LOX IMVI melanoma = test system: LOX IMVI melanoma
LXFL 529 NSCLC = test system: LXFL 529 NSCLC
M14 melanoma = test system: M14 melanoma
M19-MEL melanoma = test system: M19-MEL melanoma
MALME-3M melanoma = test system: MALME-3M melanoma
MCF7 breast = test system: MCF7 breast
MDA-MB-231 breast = test system: MDA-MB-231 breast
MDA-MB-435 = test system: MDA-MB-435
MOLT-4 leukemia = test system: MOLT-4 leukemia
NCI-H226 lung = test system: NCI-H226 lung
NCI-H460 lung = test system: NCI-H460 lung
NCI-H522 lung = test system: NCI-H522 lung
OVCAR-3 ovarian = test system: OVCAR-3 ovarian
OVCAR-4 ovarian = test system: OVCAR-4 ovarian
OVCAR-5 ovarian = test system: OVCAR-5 ovarian
OVCAR-8 ovarian = test system: OVCAR-8 ovarian
PC-3 prostate = test system: PC-3 prostate
RPMI-8226 leukemia = test system: RPMI-8226 leukemia
RXF 393 renal = test system: RXF 393 renal
SF-268 CNS = test system: SF-268 CNS
SF-295 CNS = test system: SF-295 CNS
SF-539 CNS = test system: SF-539 CNS
SK-MEL-2 melanoma = test system: SK-MEL-2 melanoma
SK-MEL-28 melanoma = test system: SK-MEL-28 melanoma
SK-MEL-5 melanoma = test system: SK-MEL-5 melanoma
SK-OV-3 ovarian = test system: SK-OV-3 ovarian
SN12C renal = test system: SN12C renal
SNB-19 CNS = test system: SNB-19 CNS
SNB-75 CNS = test system: SNB-75 CNS
SNB-78 CNS = test system: SNB-78 CNS
SR leukemia = test system: SR leukemia
SW-620 colon = test system: SW-620 colon
T-47D breast = test system: T-47D breast
TK-10 renal = test system: TK-10 renal
U251 CNS = test system: U251 CNS
UACC-257 melanoma = test system: UACC-257 melanoma
UACC-62 melanoma = test system: UACC-62 melanoma
UO-31 renal = test system: UO-31 renal

`Cc1cc(=O)[nH]c(NN2C(Cl)C(=O)C2c2ccc(O)cc2)n1` (stereo not given) was tested, and the TGI (786-0 renal) was 18.2 µM, the TGI (A498 renal) was 21.5 µM and the TGI (A549 NSCLC) was 31.2 µM. For the same molecule, the TGI (ACHN renal) was 22 µM, the TGI (BT-549 breast) was 27.1 µM and the TGI (CAKI-1 renal) was 20.4 µM. For the same molecule, the TGI (COLO 205 colon) was 40.7 µM, the TGI (DMS 273 small cell lung) was 18.1 µM and the TGI (DU-145 prostate) was 22.8 µM. The TGI (EKVX NSCLC) was 18.3 µM, the TGI (HCC-2998 colon) was 23.3 µM and the TGI (HCT-116 colon) was 14.3 µM. It also gave a TGI (HCT-15 colon) of 15.4 µM, a TGI (HL-60(TB) leukemia) of 7.69 µM and a TGI (HOP-18 NSCLC) of 27.8 µM. It also gave a TGI (HOP-62 NSCLC) of 19 µM, a TGI (HOP-92 NSCLC) of 29.4 µM and a TGI (HS 578T breast) of 51.7 µM. For the same molecule, the TGI (HT29 colon) was 35.1 µM, the TGI (IGROV1 ovarian) was 21.7 µM and the TGI (KM12 colon) was 25 µM. For the same molecule, the TGI (KM20L2 colon) was 46.5 µM, the TGI (LOX IMVI melanoma) was 7.27 µM and the TGI (LXFL 529 NSCLC) was 22.2 µM. The TGI (M14 melanoma) was 24.6 µM, the TGI (M19-MEL melanoma) was 23.1 µM and the TGI (MALME-3M melanoma) was 30.7 µM. It also gave a TGI (MCF7 breast) of 27.4 µM, a TGI (MDA-MB-231 breast) of 30 µM and a TGI (MDA-MB-435) of 20.5 µM. For the same molecule, the TGI (MOLT-4 leukemia) was > 79.2 µM, the TGI (NCI-H226 lung) was 32.6 µM and the TGI (NCI-H460 lung) was 18.1 µM. It also gave a TGI (NCI-H522 lung) of 32.8 µM, a TGI (OVCAR-3 ovarian) of 18.9 µM and a TGI (OVCAR-4 ovarian) of 19 µM. It also gave a TGI (OVCAR-5 ovarian) of 35.2 µM, a TGI (OVCAR-8 ovarian) of 28.6 µM and a TGI (PC-3 prostate) of 26.8 µM. For the same molecule, the TGI (RPMI-8226 leukemia) was 5.59 µM, the TGI (RXF 393 renal) was 17.2 µM and the TGI (SF-268 CNS) was 32.3 µM. The TGI (SF-295 CNS) was 21.4 µM, the TGI (SF-539 CNS) was 24.3 µM and the TGI (SK-MEL-2 melanoma) was 29.5 µM. It also gave a TGI (SK-MEL-28 melanoma) of 24.1 µM, a TGI (SK-MEL-5 melanoma) of 21.5 µM and a TGI (SK-OV-3 ovarian) of 23.4 µM. For the same molecule, the TGI (SN12C renal) was 23.5 µM, the TGI (SNB-19 CNS) was 23.2 µM and the TGI (SNB-75 CNS) was 7.92 µM. For the same molecule, the TGI (SNB-78 CNS) was 24.2 µM, the TGI (SR leukemia) was > 25.6 µM and the TGI (SW-620 colon) was 28.9 µM. It also gave a TGI (T-47D breast) of 32.2 µM, a TGI (TK-10 renal) of 31.7 µM and a TGI (U251 CNS) of 18.4 µM. It also gave a TGI (UACC-257 melanoma) of 26.1 µM, a TGI (UACC-62 melanoma) of 18.7 µM and a TGI (UO-31 renal) of 22.4 µM.
